The pKa is the negative logarithm of the acid dissociation constant. Read a low pKa as a group that gives up its proton readily.

SMILES strings stand for the structures.

For the first data set the following is noted: acidic group.
Compound `CC(=O)CN=O` gave a pKa of 8.4. `CCP(=O)(CC)CC=O` came in with a pKa of 10.9.

Regarding `CCP(=O)(O)CC`, the pKa stood at 3.22. The same measure, in the same setting: for `COc1csc(C(=O)O)c1` the value was 3.41. Same read-out and setting: the value for `[O-]c1ccc2ccccc2[n+]1O` was 6.88; that for `O=[N+]([O-])c1ccc(S(=O)(=O)Nc2ccccc2)cc1` was 7.41; that for `Cc1c[n+]([C@@H]2C[C@@H](O)[C@H](CO)O2)c(O)nc1N` was 4.4. The same measure, in the same setting: the value for `c1ccc(CCNc2ncnc3[nH]ncc23)cc1` was 4.38; that for `COc1cnccc1C(O)O` was 11.7.

As for `NS(=O)(=O)c1ccc(P(=O)(O)O)cc1`, the pKa was 1.42. Still for that read-out and setting: the value for `N#CCC[n+]1cccc(C(N)=O)c1.[Br-]` was 13.2; that for `NC(=O)c1c(CC(=O)O)n[nH]c1N` was 3.5.

For the compound `O=C1[N-]C(=O)/C(=N/O)C(=O)N1`, the pKa was 10.1. `O=C([O-])[C@H](P)CC[C@H](P)C(=O)O` displayed a pKa of 4.49. As to `CC(C)(S)C(C(=O)O)n1cc[nH+]c1Cc1ccccc1` (centres undefined), the pKa worked out at 1.8. Same read-out and setting: the value for `O=C([O-])C[NH+](CC(=O)[O-])Cc1cc([N+](=O)[O-])ccc1O` was 6.18.

`Nc1ccc(S(=O)(=O)Nc2ccc(C(=O)O)cc2)cc1`: the pKa was found to be 4.02. On the same count and under the same terms, for `CBr` the value was 15.4; for `O=C(OCc1ccccc1)c1ccc(O)cc1`, 8.31; for `Cc1cc(C[NH+](C)C)c(O)c(C[NH+](C)C)c1`, 6.45.

Compound `CC(=O)c1cc(C(=O)c2ccccc2)n[nH]1` yielded a pKa of 9.01.

As to `C[N+](C)(C)Cc1cccc(O)c1O`, the pKa was found to be 8.1. Still for that read-out and setting: for `CSC(=S)NCC(=O)O` the value was 3.19. The same measure, in the same setting: for `COc1ccccc(=O)c1O` the value was 8. `O=S(=O)([N-]c1ncc(Cl)cn1)c1ccc(O)cc1` gave a pKa of 8.84.

`[O-]c1nc(O)nn1-c1ccccc1` returned a pKa of 12.2. On the same count and under the same terms, the value for `Cc1ncc(CO)c(C[NH3+])c1O` was 8.02; that for `Oc1ccc2cccnc2c1` was 8.85; that for `Oc1cnc2ccccc2[nH+]1` was -1.37. `O=Cc1ccc(O)c(O)c1`: the pKa amounted to 7.45.

`O=C(S)c1ccccc1` had a pKa of 2.44. Still for that read-out and setting: the value for `CC/C=C/CC(=O)O` was 4.52.

In the case of `CCCCP(=O)(O)CCCC`, the pKa was found to be 3.22. On the same count and under the same terms, the value for `O=C(O)C1CC1` was 4.83; that for `CN(C)c1cccc2c(S(=O)(=O)NCC(=O)[O-])cccc12` was 11.7; that for `COc1cccc(O)c1` was 9.51. On the same count and under the same terms, for `Cn1ccnc1CS` the value was 8.88.

For the compound `CC#CC#CC=C=C[C@@H](O)CCC(=O)O`, the pKa is 4.9. Same read-out and setting: the value for `c1cn[nH]c1` was 14.2; that for `O=C(O)c1ccccc1I` was 2.93. For the compound `O=C1NC(=O)C(c2ccccc2)C1=O` (centres undefined), the pKa turned out to be 3.4.

The compound `Nc1ccc(S(=O)(=O)NCc2ccco2)cc1` had a pKa of 10.9. `CCOc1ccc(C(=O)NC(=S)N(CC)CC)cc1`: the pKa worked out at 8.83. The same measure, in the same setting: for `Cc1ccc(C(=O)S)cc1` the value was 2.59; for `O=C1O[C@@H]([C@@H](O)CO)C([O-])=C1O`, 11.3; for `Cc1cc2nnn(O)c2cc1Cl`, 4.57. The same measure, in the same setting: the value for `CCCCCC/C=N/O` was 11.6; that for `Cc1ccccc1C(O)C(C(=O)O)c1ccc(-c2ccccc2)cc1` (centres undefined) was 4.19; that for `O=[N+]([O-])c1ccc(NS(=O)(=O)c2ccccc2)cc1` was 6.63. Same read-out and setting: for `OCc1nc2ncncc2[nH]1` the value was 8.79. Compound `O/C(=C\c1ccccn1)c1ccccc1` gave a pKa of 11.1. On the same count and under the same terms, for `[O-]c1nc(NO)cc[n+]1[C@H]1O[C@@H](CO)[C@H](O)[C@@H]1O` the value was 10.5. Still for that read-out and setting: for `C[N+](C)(C)CCC[N+](C)(C)CCCNC(=O)/C=N/O` the value was 8.31; for `COc1cc(C(=O)O)cc(OC)c1O`, 4.2.

As to `CC1=CC(C)(C)SC(=S)N1`, the pKa turned out to be 10.9. Still for that read-out and setting: the value for `Cc1c(C(=O)O)[nH]c2ccccc12` was 4.33. On the same count and under the same terms, the value for `O/N=C/c1ccccc1` was 10.8; that for `COC(=O)c1cc(O)c(O)c(O)c1C[NH+](C)C` was 6.8; that for `NC(=S)Nc1ccc(Br)cc1` was 12.3. The compound `CCOO` registered a pKa of 11.8. On the same count and under the same terms, the value for `CNc1ccc(S(=O)(=O)Nc2nc(C)cs2)cc1` was 6.63.

The data set is the same for the next values; noted with them: basic group.
`CC(C)(C)N1NC2CCC1CC2` came in with a pKa of 9.54. The same measure, in the same setting: the value for `Cc1[nH]cnc1CSCCNC(=[NH2+])NCCCc1c[nH]cn1` was 7.26; that for `COc1ccc2c3c1O[C@H]1CCC[C@H]4[C@@H]([C@H]2O)N(C)CC[C@]314` was 7.71. The same measure, in the same setting: for `Brc1ccc(-c2ncc(-c3ccccc3)o2)cc1` the value was 0.4; for `O=[N+]([O-])c1cccc2cn[nH]c12`, -0.83; for `CN(C)c1ccc(Br)cc1`, 4.25. The same measure, in the same setting: for `Cc1ccccc1/C(=N\CCCN(C)C)c1ccccc1N` the value was 9; for `CN(C)CCN(C)C`, 9.15.

For the compound `Nc1ccc2cc3ccc(N)cc3nc2c1`, the pKa was determined as 9.65. Same read-out and setting: for `CCCCNCCCC` the value was 11.3.

`OC(CN1CCOCC1)CN1CCOCC1` had a pKa of 6.98. The same measure, in the same setting: for `N#Cc1cccc(N)c1` the value was 2.83; for `Cc1cc(C)c(CO)c(C)n1`, 7.1; for `CN1CCC2Cc3ccc(O)c(O)c3C3CCCC1C23` (centres undefined), 7.58. Same read-out and setting: for `CN(C)c1ccc(Cl)cc1` the value was 4.39; for `CCN(CC)CC(=O)N(C)c1ccccc1C`, 8.74; for `OCCc1cnc(P(c2[nH]c(CCO)c[nH+]2)c2[nH]c(CCO)c[nH+]2)[nH]1`, 5.75. `CN(C)C(C)(C)C` registered a pKa of 10.5. `Nc1ccc(/C=C/c2cc(N)c3ccccc3n2)cc1`: the pKa was 9.5.

As for `Cc1cc2nc3ccc(N(C)C)cc3[nH+]c2cc1N`, the pKa was found to be 0.2. On to `CCNCC[NH2+]CC`, for which the pKa was determined as 7.7. Same read-out and setting: the value for `C#CCN1CCN(C(=O)OCC)CC1` was 5.44.

As for `Clc1ccc(C2NCCS2)cc1` (centres undefined), the pKa came out at 5.01. The same measure, in the same setting: for `[O-]c1ncccn1` the value was 9.17; for `CCCC(=O)C(CCN1CCOCC1)(c1ccccc1)c1ccccc1`, 7.17. Still for that read-out and setting: for `OCCCCNCl` the value was 1.49. As for `O=C(CCN1CCOCC1)c1cccc(Br)c1`, the pKa amounted to 6.8.

In turn, `CCN1CCC[C@@H]1CNC(=O)c1c(OC)ccc([N+](=O)[O-])c1[O-]` displayed a pKa of 9.12.

`CCCN1C=CC(=CC=C2C=CC(=O)C=C2)C=C1` came in with a pKa of 8.5. Still for that read-out and setting: for `CCc1cc(Cl)c([O-])c(C(=O)NC[C@H]2CCCN2CC)c1OC` the value was 9.54. The same measure, in the same setting: for `CC(C)[C@H]1CN[C@H](C(=O)[O-])[C@H]1CC(=O)[O-]` the value was 10.6; for `O=Cc1ccc(-c2cnc(-c3ccccc3)o2)cc1`, 0.57; for `CCCN(CCC)CCCNC(=O)/C=N/[O-]`, 10.3.

`O=C([O-])CSc1nc2cc3ccccc3cc2[nH]1` came in with a pKa of 4.68.

`c1ccc(Cc2cc(-c3ccccc3)nnc2NCC[NH+]2CCOCC2)cc1`: the pKa came to 3.6.

As to `CN(C)CCC#N`, the pKa was 7.01. On the same count and under the same terms, for `Cc1ncc(CO)c(C[NH3+])c1O` the value was 3.38.

`Oc1ccc2cccnc2c1` showed a pKa of 5.48.

Consider `Cc1cc(N)ncn1`, for which the pKa stood at 6.25. The same measure, in the same setting: the value for `C#CCNCC#C` was 6.08; that for `CN(C)CCNC(=O)/C=N/[O-]` was 9.43. With `CC1=Nc2ccc([N+](=O)[O-])cc2[NH+]=C(C)C1`, the pKa was 2.2. Same read-out and setting: the value for `C1CN2CC[C@@H]3OC[C@H]1[C@@H]32` was 9.44; that for `Cc1cc(N)c(C)cn1` was 9.68; that for `Cc1ccc(C)c(N)c1` was 4.47. The same measure, in the same setting: the value for `CC(C)CN(C)C` was 9.91; that for `CCCCc1ccc(C(=O)[O-])nc1` was 5.7; that for `Cn1ccnc1CS` was 6.31. Same read-out and setting: for `CC(C)(C(=O)[O-])c1c[nH]c(CO)n1` the value was 7.38; for `c1cn[nH]c1`, 2.61. Compound `Cc1nc[nH]c1C` came in with a pKa of 8.19. In turn, `Cc1cnc(C)c(C)n1` yielded a pKa of 2.65. As for `C#C[C@]1(O)C[C@H](C)N(C)[C@@H]2CCCC[C@H]21`, the pKa was 9.22.

For `Nc1ccc(S(=O)(=O)NCc2ccco2)cc1`, the pKa came out at 2.25. For the compound `NCCCCCN`, the pKa came to 10.8.

The compound `[NH3+]CCN1CCOCC1` registered a pKa of 4.84. The compound `COC(=O)c1ccc(N)cc1` registered a pKa of 2.44.

Compound `Cn1cc(Cl)cn1` gave a pKa of 0.16. Still for that read-out and setting: for `Cc1ccc(C(=O)S)cc1` the value was -5.19; for `CSc1ccccn1`, 3.62; for `CN(C)CC(CSCc1ccccc1)SCc1ccccc1` (centres undefined), 7.3. Same read-out and setting: the value for `Nc1ccccc1-c1nc2ccccc2s1` was 2.6; that for `CCC(C)(N)C(=O)[O-]` (centres undefined) was 9.98; that for `OCCNc1nc(NCCO)nc(NCCO)n1` was 5.19. The same measure, in the same setting: for `NCc1ccc(O)c(O)c1` the value was 8.6; for `C1CCN(C2CC[NH2+]CC2)CC1`, 7.97; for `CN(C)CCSCCN(C)C`, 9.1.

With `C[NH+](C)CCN`, the pKa was determined as 6.63. On the same count and under the same terms, for `C[C@H]1C[C@@H]2CCC[C@@H]2N1C` the value was 10.1. As for `OCc1nc2ncncc2[nH]1`, the pKa worked out at 2.62. Consider `O=C([O-])CNCCc1nnn[n-]1`, for which the pKa turned out to be 9.23. Turning to `N#CCCNc1ccccc1`, the pKa was 4.5. Still for that read-out and setting: for `CN1CCCCCC1` the value was 11; for `CCN(CC)CCCC(C)Nc1ccnc2ccc(OC)cc12` (centres undefined), 10.2. Still for that read-out and setting: for `CCN1CCCC=C1C` the value was 11.6; for `C1CNCCNCC[NH2+]C1`, 6.75; for `O/C(=C\c1ccccn1)c1ccccc1`, 4.52.

In the case of `Cc1ccc2c(c1)C(CC[NH3+])CN2` (centres undefined), the pKa amounted to 4.1. Still for that read-out and setting: for `C#CC(C)(C)NC(C)(C)C=C` the value was 8.2. Same read-out and setting: the value for `CC1(C)[C@@H](N)[C@@H]1N` was 8.96. With `Nc1nnnn1-c1cccc([N+](=O)[O-])c1`, the pKa was found to be 0.47. `COC(=O)[C@@H]1[C@H](O)C[C@@H]2CC[C@H]1N2C` returned a pKa of 8.85. With `CC1=CSC2=NCCN12`, the pKa was found to be 9.81.

The values above are taken from the pKa sets of Baltruschat and Czodrowski (2020).
